Where two headings read alike, the source gives them in different places. Ends that are not written are not given here.
Test system: two peptides with a FITC label covalently attached to each other via a disulfide bridge
Assay: Reductase activity of the peptides, fluorescent assay (Tomazzolli et al.)
Format: biochemical
[1] = compared with the control peptide without modified cysteine, DTT = 100% reducing activity, water = 0%

| Substance | oxidoreductase activity [1] | oxidoreductase activity |
| --- | --- | --- |
| GW YRSPFSRVV HLYR CPY-C—NH-ethyl (GWYRSPFSRVVHLYRCPYC-NHEt; cysteine pairing not given here) [Peptide 30] | slightly higher oxidoreductase activity than the control peptide | – |
| GWYRSPFSRVVHLYRCPYC-NH-methyl (GWYRSPFSRVVHLYRCPYC-NHMe; cysteine pairing not given here) [Peptide 29] | slightly higher oxidoreductase activity than the control peptide | – |
| N-Acetyl-CPYCSLQPLALEGSLQKRG (Ac-CPYCSLQPLALEGSLQKRG; not fully specified (C-terminus); printed as N-Acetyl-CPYCSLQPLALEGSLQKRG; cysteine pairing not given here) [Peptide 2] | higher oxidoreductase activity than the control peptide | – |
| N-Acetyl-CPYCVQYIKANSKFIGITEL [Peptide 7] | – | higher oxidoreductase activity than the control peptide |
| N-acetyl C-HGC GW YRSPFSRVV HLYR —NH2 [Peptide 27] | higher activity than the control peptide | – |
| N-acetyl C-PYC GW YRSPFSRVV HLYR —NH2 [Peptide 22] | higher oxidoreductase activity than the control peptide | – |
| N-ethyl C-PYC GW YRSPFSRVV HLYR —NH2 [Peptide 24] | no oxidoreductase activity | – |
| N-methyl C-PYC GW YRSPFSRVV HLYR —NH2 [Peptide 23] | equivalent activity as compared to the control peptide | – |
| N-propionyl C-PYC GW YRSPFSRVV HLYR —NH2 [Peptide 25] | higher oxidoreductase activity than the control peptide | – |

— patent US20230113747A1, “IMMUNOGENIC PEPTIDES WITH AN OXIDOREDUCTASE MOTIF COMPRISING A MODIFIED CYSTEINE” (priority 2019, published 2023)
